Data reported in the NIST ThermoML archive (doi:10.1007/s10765-008-0549-z).

Conditions: Liquid, Hot wire method

Cc1ccccc1 [toluene]
Conditions | thermal conductivity [W/m/K]
274.65 K | 0.1387
275.4 K | 0.1382
275.95 K | 0.1384
276.31 K | 0.138
287.33 K | 0.1345
288.72 K | 0.1336
289.65 K | 0.1335
294.45 K | 0.1318
294.69 K | 0.1318
295.08 K | 0.1321
295.47 K | 0.1314
295.79 K | 0.132
297.45 K | 0.1318
298.6 K | 0.1313
300.43 K | 0.1303
307.66 K | 0.1287
308.62 K | 0.1283
310.22 K | 0.1274
314.69 K | 0.1261
314.74 K | 0.1264
315.55 K | 0.1253
315.85 K | 0.1254
316.7 K | 0.1251
317.94 K | 0.1251
319.32 K | 0.1245
319.96 K | 0.1245
327.65 K | 0.1225
329.5 K | 0.1214
330.77 K | 0.1209
338.39 K | 0.1188
339.77 K | 0.1181
340.62 K | 0.1181
355.63 K | 0.114
355.95 K | 0.114
357.02 K | 0.1137
375.26 K | 0.1086
375.71 K | 0.1087
